Source: ChEMBL document CHEMBL5537157, “Selective Antitumor Effect and Lower Toxicity of Mitochondrion-Targeting Derivatization of Triptolide” (J Med Chem, 2024)

Columns and labels:
NCI-H460 = experiment: Cytotoxicity against human NCI-H460 cells assessed as cell growth inhibition at 4.5 to 10 nM incubated for 48 hrs by MTT assay relative to control; format: functional; settings: dose 4.5-10 nM
[1] = Developmental toxicity in zebrafish AB zygotes assessed as decrease in hatching rate at 1 to 4 uM treated at 6 hrs post-fertilization measured at 24 to 72 hrs post-fertilization; design: species or system Danio rerio; settings: in vivo, dose lower 1 µM, time lower 18 hrs, dose upper 4 µM, time upper 66 hrs
[2] = Developmental toxicity in zebrafish AB zygotes assessed as lethal effect at 2 to 4 uM treated at 6 hrs post-fertilization measured at 72 hrs post-fertilization; design: species or system Danio rerio; settings: in vivo, 66 h, dose 2-4 µM
[3] = Cytotoxicity against human HUVEC cells assessed as cell growth inhibition at 4.5 to 10 nM incubated for 48 hrs by MTT assay relative to control; format: toxicity, cell-based; settings: dose 4.5-10 nM, read-out: Imax
MCF7 = experiment: Cytotoxicity against human MCF7 cells assessed as cell growth inhibition at 4.5 to 10 nM incubated for 48 hrs by MTT assay relative to control; format: functional; settings: dose 4.5-10 nM
[4] = Toxicity in zebrafish embryo assessed as damage effect in liver function at 2 uM with replacement of new growth solution daily by fluorescence microscopy relative to control; design: species or system Danio rerio; settings: in vivo
[5] = Toxicity in zebrafish embryo assessed as liver development at 2 uM with replacement of new growth solution daily by fluorescence microscopy (reference value: 100.00 +/- 8.64 %); format: tissue-based, Danio rerio; settings: in vivo
[6] = Renal toxicity in zebrafish assessed as increase in TNF-alpha expression at 2 uM treated for 48 hrs by RT-qPCR analysis; design: species or system Danio rerio; settings: in vivo
[7] = Developmental toxicity in zebrafish AB zygotes assessed as decrease in hatching rate at 2 to 4 uM treated at 6 hrs post-fertilization measured at 24 to 72 hrs post-fertilization; design: species or system Danio rerio; settings: in vivo, dose lower 2 µM, time lower 18 hrs, dose upper 4 µM, time upper 66 hrs
NCI-H1975 = experiment: Inhibition of cell viability in human NCI-H1975 cells assessed as cell index at 270 nM measured after 48 hrs by real-time cell analysis; format: functional
[8] = Renal toxicity in zebrafish assessed as yolk sac absorption at 0.5 to 4 uM treated at 3 hrs post-fertilization measured at 48 hrs post-compound treatment by FITC staining based microscopy; design: species or system Danio rerio; settings: in vivo, dose 0.5-4 µM

## CC(C)[C@]12O[C@H]1[C@@H]1O[C@@]13[C@@]1(C)CCC4=C(COC4=O)[C@@H]1C[C@@H]1O[C@@]13C2=O [TRIPTONIDE]
NCI-H460
  Imax: ~40%
[1]
  Activity: Toxic
[2]
  Activity: Toxic
[3]
  Emax at 48 h: ~60%
MCF7
  Imax: ~40%

## CC(C)[C@]12O[C@H]1[C@@H]1O[C@]13[C@]1(O[C@H]1C[C@H]1C4=C(CC[C@@]13C)C(=O)OC4)[C@@H]2OC(=O)CCCCCCCC[n+]1ccc(/C=C/c2c[nH]c3ccccc23)cc1.[Br-]
[4]
  Activity: 79.96%
[5]
  Activity: 41.79%
[6]
  Activity: Toxic
[7]
  Activity: Toxic
NCI-H1975
  Activity_index: 0
[8]
  Activity: Non-Toxic
